ChEMBL document CHEMBL4651402, “Screening of ~5500 FDA-approved drugs and clinical candidates for anti-SARS-CoV-2 activity” (2021)

Tested on: SARS-CoV-2
Assay: microbe, parasite or virus in culture
Settings: Severe acute respiratory syndrome coronavirus 2, Vero C1008, 48 h

| Compound | IC50 | IC50 (read-out: pIC50 (converted)) |
| --- | --- | --- |
| C[C@@H]1CN(Cc2ccc(F)cc2)[C@@H](C)CN1C(=O)c1cc2c(C(=O)C(=O)N(C)C)cn(C)c2cc1Cl [TALMAPIMOD] | > 20 µM | > 20 µM |
| CC[C@H](NC(=O)c1c(O)c(-c2ccccc2)nc2ccccc12)c1ccccc1 [TALNETANT] | > 20 µM | > 20 µM |
| CNCCCC1(c2ccccc2)OC(C)(C)c2ccccc21 (centres undefined) [TALOPRAM] | > 20 µM | > 20 µM |
| CN[C@@H]1CC[C@@H](c2ccccc2)c2ccccc21 [TAMETRALINE] | > 20 µM | > 20 µM |
| CC1(C)CCC(C)(C)c2cc(NC(=O)c3ccc(C(=O)O)cc3)ccc21 [TAMIBAROTENE] | > 20 µM | > 20 µM |
| CC/C(=C(\c1ccccc1)c1ccc(OCCN(C)C)cc1)c1ccccc1 [TAMOXIFEN] | > 20 µM | > 20 µM |
| CCOc1ccccc1OCCN[C@H](C)Cc1ccc(OC)c(S(N)(=O)=O)c1 [TAMSULOSIN] | > 20 µM | > 20 µM |
| O=C1[C@@H]2[C@H]3CC[C@H](C3)[C@@H]2C(=O)N1CCCCN1CCN(c2ncccn2)CC1 [TANDOSPIRONE] | > 20 µM | > 20 µM |
| O[C@H]1CC[C@H](Nc2ncc3nc(Nc4c(F)cc(F)cc4F)n([C@H]4CCOC4)c3n2)CC1 [TANZISERTIB] | > 20 µM | > 20 µM |
| CC[C@@H](c1cccc(O)c1)[C@@H](C)CN(C)C [TAPENTADOL] | > 20 µM | > 20 µM |
| C[C@H](NC(=O)C(C)(C)Oc1ccc(C(F)(F)F)cn1)[C@@H](Cc1ccc(Cl)cc1)c1cccc(C#N)c1 [TARANABANT] | > 20 µM | > 20 µM |
| C[C@@H](C(=O)O)c1ccc(-c2ccccc2)c(F)c1 [TARENFLURBIL] | > 20 µM | > 20 µM |
| O=C(O)C(O)C(O)C(=O)O (centres undefined) [TARTARIC ACID] | > 20 µM | > 20 µM |
| C#C[C@@]1(O)[C@@H](CO)O[C@@H](n2ccc(N)nc2=O)[C@@H]1O [TAS-106] | > 20 µM | > 20 µM |
| CCC(=O)NC[C@@H]1C[C@H]1c1cccc2c1CCO2 [TASIMELTEON] | > 20 µM | > 20 µM |
| c1cnc(SCc2cccnc2)nc1 [TASULDINE] | > 20 µM | > 20 µM |
| NCCS(=O)(=O)O [TAURINE] | > 20 µM | > 20 µM |
| C[C@H](CCC(=O)NCCS(=O)(=O)O)[C@H]1CC[C@H]2[C@@H]3[C@@H](O)C[C@@H]4C[C@H](O)CC[C@]4(C)[C@H]3CC[C@]12C [TAURURSODIOL] | > 20 µM | > 20 µM |
| OB1OCc2cc(F)ccc21 [TAVABOROLE] | > 20 µM | > 20 µM |
| CCOC(=O)c1ccc(C#Cc2ccc3c(c2)C(C)(C)CCS3)nc1 [TAZAROTENE] | > 20 µM | > 20 µM |
| CCN(c1cc(-c2ccc(CN3CCOCC3)cc2)cc(C(=O)NCc2c(C)cc(C)[nH]c2=O)c1C)C1CCOCC1 [TAZEMETOSTAT] | > 20 µM | > 20 µM |
| C[C@]1(Cn2ccnn2)[C@H](C(=O)O)N2C(=O)C[C@H]2S1(=O)=O [TAZOBACTAM] | > 20 µM | > 20 µM |
| [2H]C1([2H])[C@H]2C[C@@H](Oc3ccc(C(F)(F)F)cn3)[C@H](C2)N1C(=O)c1cccc(F)c1-c1ncccn1 [TEBIDEUTOREXANT] | > 20 µM | > 20 µM |

| Compound | IC50 | IC50 (read-out: pIC50 (converted)) |
| --- | --- | --- |
| Cn1nnc(-c2ccc(-c3ccc(N4C[C@H](COP(=O)(O)O)OC4=O)cc3F)cn2)n1 [TEDIZOLID PHOSPHATE] | > 20 µM | > 20 µM |
| O=c1[nH]c(=O)n(C2CCCO2)cc1F (centres undefined) [TEGAFUR] | > 20 µM | > 20 µM |
| CCCCCNC(=N)N/N=C/c1c[nH]c2ccc(OC)cc12 [TEGASEROD] | > 20 µM | > 20 µM |
| CCc1nc2ccc(Cl)cn2c1C(=O)NCc1ccc(N2CCC(c3ccc(OC(F)(F)F)cc3)CC2)cc1 [TELACEBEC] | > 20 µM | > 20 µM |
| CNC(=O)c1cc(COc2nnc(Nc3ccc(Cl)cc3)c3ccoc23)ccn1 [TELATINIB] | > 20 µM | > 20 µM |
| O=C(N[C@@H]1CC[C@@H](c2cccc(F)c2F)CN(CC(F)(F)F)C1=O)N1CCC(n2c(=O)[nH]c3ncccc32)CC1 [TELCAGEPANT] | > 20 µM | > 20 µM |
| Cc1scc2c1N(C(=O)CN1CCN(C)CC1)c1ccccc1NC2=O [TELENZEPINE] | > 20 µM | > 20 µM |
| CCOC(=O)[C@@H](N)Cc1ccc(-c2cc(O[C@H](c3ccc(Cl)cc3-n3ccc(C)n3)C(F)(F)F)nc(N)n2)cc1 [TELOTRISTAT ETHYL] | > 20 µM | > 20 µM |
| Cc1ccn(-c2cc(Cl)ccc2[C@@H](Oc2cc(-c3ccc(C[C@H](N)C(=O)O)cc3)nc(N)n2)C(F)(F)F)n1 [TELOTRISTAT] | > 20 µM | > 20 µM |
| CC1CN(c2cc3c(cc2F)c(=O)c(C(=O)O)cn3-c2ccc(F)cc2F)CCN1 (centres undefined) [TEMAFLOXACIN] | > 20 µM | > 20 µM |
| CN1C(=O)C(O)N=C(c2ccccc2)c2cc(Cl)ccc21 (centres undefined) [TEMAZEPAM] | > 20 µM | > 20 µM |
| CCOC(=O)[C@H](CCc1ccccc1)N[C@H]1CS[C@H](c2cccs2)CN(CC(=O)O)C1=O [TEMOCAPRIL] | > 20 µM | > 20 µM |
| Cn1nnc2c(C(N)=O)ncn2c1=O [TEMOZOLOMIDE] | > 20 µM | > 20 µM |
| CC1(C)CC(O)CC(C)(C)N1[O] [TEMPOL] | > 20 µM | > 20 µM |
| CO[C@H]1C[C@@H]2CC[C@@H](C)[C@@](O)(O2)C(=O)C(=O)N2CCCC[C@H]2C(=O)O[C@H]([C@H](C)C[C@@H]2CC[C@@H](OC(=O)C(C)(CO)CO)[C@H](OC)C2)CC(=O)[C@H](C)/C=C(\C)[C@@H](O)[C@@H](OC)C(=O)[C@H](C)C[C@H](C)/C=C/C=C/C=C/1C [TEMSIROLIMUS] | > 20 µM | > 20 µM |
| COc1ccc2[nH]c([S+]([O-])Cc3ncc(C)c(OC)c3C)nc2n1 (centres undefined) [TENATOPRAZOLE] | > 20 µM | > 20 µM |
| Cc1cc(N2CCN([C@@H]3CN[C@H](C(=O)N4CCSC4)C3)CC2)n(-c2ccccc2)n1 [TENELIGLIPTIN] | > 20 µM | > 20 µM |
| NC(=O)N1C(=O)/C(=C(\O)c2cccs2)c2cc(Cl)ccc21 [TENIDAP] | > 20 µM | > 20 µM |
| CN1CCN(C2=Nc3cscc3/C(=C/C#N)c3cscc32)CC1 [TENILAPINE] | > 20 µM | > 20 µM |
| COc1cc([C@@H]2c3cc4c(cc3[C@@H](O[C@@H]3O[C@@H]5CO[C@@H](c6cccs6)O[C@H]5[C@H](O)[C@H]3O)[C@H]3COC(=O)[C@H]23)OCO4)cc(OC)c1O [TENIPOSIDE] | > 20 µM | > 20 µM |
| CC(C)OC(=O)[C@H](C)N[P@](=O)(CO[C@H](C)Cn1cnc2c(N)ncnc21)Oc1ccccc1 [TENOFOVIR ALAFENAMIDE] | > 20 µM | > 20 µM |
| C[C@H](Cn1cnc2c(N)ncnc21)OCP(=O)(O)O [TENOFOVIR ANHYDROUS] | > 20 µM | > 20 µM |
| CC(C)OC(=O)OCOP(=O)(CO[C@H](C)Cn1cnc2c(N)ncnc21)OCOC(=O)OC(C)C [TENOFOVIR DISOPROXIL] | > 20 µM | > 20 µM |

| Compound | IC50 | IC50 (read-out: pIC50 (converted)) |
| --- | --- | --- |
| CCCCCCCCCCCCCCCCOCCCOP(=O)(O)CO[C@H](C)Cn1cnc2c(N)ncnc21 [TENOFOVIR EXALIDEX] | > 20 µM | > 20 µM |
| CN1C(C(=O)Nc2ccccn2)=C(O)c2sccc2S1(=O)=O [TENOXICAM] | > 20 µM | > 20 µM |
| COc1ccc(-n2nc(CCC(=O)N(C)O)cc2-c2ccc(Cl)cc2)cc1 [TEPOXALIN] | > 20 µM | > 20 µM |
| COc1cc2nc(N3CCN(C(=O)C4CCCO4)CC3)nc(N)c2cc1OC (centres undefined) [TERAZOSIN] | > 20 µM | > 20 µM |
| CN(C/C=C/C#CC(C)(C)C)Cc1cccc2ccccc12 [TERBINAFINE] | > 20 µM | > 20 µM |
| CC(C)(C)NCC(O)c1cc(O)cc(O)c1 (centres undefined) [TERBUTALINE] | > 20 µM | > 20 µM |
| C/C(O)=C(\C#N)C(=O)Nc1ccc(C(F)(F)F)cc1 [TERIFLUNOMIDE] | > 20 µM | > 20 µM |
| O=C1NOCC1/N=C/c1ccc(/C=N/C2CONC2=O)cc1 (centres undefined) [TERIZIDONE] | > 20 µM | > 20 µM |
| O=c1n(CC2CO2)c(=O)n(CC2CO2)c(=O)n1CC1CO1 (centres undefined) [TEROXIRONE] | > 20 µM | > 20 µM |
| CCO[C@@H](Cc1ccc(OCCc2ccc(OS(C)(=O)=O)cc2)cc1)C(=O)O [TESAGLITAZAR] | > 20 µM | > 20 µM |
| CCCCNc1ccc(C(=O)OCCN(C)C)cc1 [TETRACAINE] | > 20 µM | > 20 µM |
| CN(C)[C@@H]1C(O)=C(C(N)=O)C(=O)[C@@]2(O)C(O)=C3C(=O)c4c(O)cccc4[C@@](C)(O)[C@H]3C[C@@H]12 [TETRACYCLINE] | > 20 µM | > 20 µM |
| COc1ccc2c(c1OC)CN1CCc3cc4c(cc3C1C2)OCO4 (centres undefined) [TETRAHYDROBERBERINE] | > 20 µM | > 20 µM |
| CC1NCCc2c1[nH]c1ccccc21 (centres undefined) [TETRAHYDROHARMAN] | > 20 µM | > 20 µM |
| O=C1NC(O)CCN1[C@@H]1O[C@H](CO)[C@@H](O)[C@H]1O (some centres undefined) [TETRAHYDROURIDINE] | > 20 µM | > 20 µM |
| c1ccc2c(c1)CCCC2C1=NCCN1 (centres undefined) [TETRAHYDROZOLINE] | > 20 µM | > 20 µM |
| O=C1C(O)=C(O)C(=O)C(O)=C1O [TETROQUINONE] | > 20 µM | > 20 µM |
| COCCOc1c(OC)cc(Cc2cnc(N)nc2N)cc1OC [TETROXOPRIM] | > 20 µM | > 20 µM |
| CNc1c2c(nn1C)CCCC2 [TETRYDAMINE] | > 20 µM | > 20 µM |
| Nc1nc(N)c2nc(-c3cccc(O)c3)c(-c3cccc(O)c3)nc2n1 [TG100-115] | > 20 µM | > 20 µM |
| O=C1CCC(N2C(=O)c3ccccc3C2=O)C(=O)N1 (centres undefined) [THALIDOMIDE] | > 20 µM | > 20 µM |
